According to paper PMC5573151 (Clinical cancer research : an official journal of the …, 2009):

Biological target: HLA-A2.1 (Homo sapiens, UniProt P04439, D140Y/D185E/D98H/E176V/E277Q/G131W/G231S/I119V/I121R/I166T/I218V/L300P/L318F/N151K/N90K/P208A/P217A/Q86G/Q94H/R138H/R169H/T345S)
Test: MHC stabilization
Type: binding
Settings: T2 cell assay

Row | Sequence | Binding to A2.1 (in words)
1 | KLLPLPSAI [SIM2(25)] | strongly bind
2 | SLYDSCYQI [SIM2(199)] | strongly bind
